Assay results taken from patent US20040039040A1, “Urea derivative and adhesive-molecule inhibitor containing the same as active ingredient” (priority 2000, published 2004).

Molecular target: VLA-4-IgG chimera protein (Homo sapiens, UniProt P05556+P13612)
Experiment: Inhibitory effect against binding between CS-1 peptide and VLA-4-IgG chimera protein
Settings: binding of VLA-4-IgG chimera protein to immobilized CS-1 peptide-rabbit IgG conjugate; compound preincubated 20 min; 30° C. 3 hours; absorbance at 490 nm
Method: The inhibitory activity of the compound according to the present invention against the adhesion of VLA-4 may be determined by using an adhesion-measuring system in which the adhesion between VLA-4-expressing cells such as Ramos cells or Jurkat cells and fibronectin or fibronectin fragment such as a peptide containing CS-1 sequence (Gly Pro Glu Ile Leu Asp Val Pro Ser Thr) (hereinafter referred to as “CS-1 peptide”), immobilized on an immunoplate is measured. Alternatively, a binding-measuring system in which the adhesion between VLA-4 protein and fibronectin or fibronectin fragment such as CS-1 peptide, immobilized on an immunoplate may be used. In the present invention, it is preferred to evaluate the inhibitory activity of a compound using a binding-measuring system in which adhesion between a chimera protein of VLA-4-immunoglobulin (VLA-4-IgG chimera protein) and CS-1 peptide (Japanese Patent Application No. H9-234544), but the method is not restricted thereto. The “VLA-4-IgG chimera protein” herein means the heterodimer complex of the chimera protein between α4 of VLA-4 and immunoglobulin (hereinafter referred to as “VLAα4-IgG chimera protein”) and a chimera protein between β1 of VLA-4 and immunoglobulin (hereinafter referred to as “VLAβ1-IgG chimera protein”). As the immunoglobulin, although heavy chain or light chain of IgG, IgM or the like may be used, IgG1 heavy chain is used in the present invention. When testing the inhibitory effect of a compound, it is preferred to mix VLA-4-IgG chimera protein and the test compound previously.
In accordance with the teaching of a report (Humphrise, M. J. et al. J.Bio.Chem., 262,6886-6892(1987)), a conjugate between a peptide (Gys Leu His Gly Pro Glu Glu Ile Leu Asp Val Pro Ser Thr) containing CS-1 sequence and rabbit IgG (Sigma) was prepared. This was diluted with phosphate buffer (hereinafter referred to as “PBS(−)” for short), and the obtained solution was placed in the wells of a 96-well immunoplate (NUNC) in an amount of 100 μl/well, followed by leaving to stand the immunoplate at 4° C. for 16 hours to immobilize the conjugate.
The wells were then washed twice with PBS(−), and 1% BSA solution in PBS, which BSA was heated at 80° C. for 10 minutes, was placed in each well in an amount of 300 μl/well. The immunoplate was left to stand at 4° C. for 3 hours, and then the solution in each well was removed by suction.
Each compound and VLA-4-IgG chimera protein (100 μl) were preliminarily reacted at room temperature for 20 minutes, and then the resulting mixture was allowed to react with the CS-1 peptide in each well at 30° C. for 3 hours. Thereafter, non-bound VLA-4-IgG chimera protein was removed by suction, and each well was washed twice with 0.1% BSA-containing TBS buffer (150 mM NaCl, 25 mM Tris-HCl, 1 mM MnCl2, PH7.4). To the bound VLA-4-IgG chimera protein, biotin-labelled anti-human IgG antibody (Vector) as a primary antibody was added, and then avidin-labelled horse radish peroxidase (Sigma) as a secondary antibody was added, thereby allowing the reactions. Then o-phenylenediamine as a substrate was added to color the reaction solution, and the absorbance at 490 nm was measured. From this absorbance, the binding inhibitory activity of each compound was determined.

Chain of VLA-4-IgG chimera protein (P13612 with tags, fused parts or gaps limits assumed): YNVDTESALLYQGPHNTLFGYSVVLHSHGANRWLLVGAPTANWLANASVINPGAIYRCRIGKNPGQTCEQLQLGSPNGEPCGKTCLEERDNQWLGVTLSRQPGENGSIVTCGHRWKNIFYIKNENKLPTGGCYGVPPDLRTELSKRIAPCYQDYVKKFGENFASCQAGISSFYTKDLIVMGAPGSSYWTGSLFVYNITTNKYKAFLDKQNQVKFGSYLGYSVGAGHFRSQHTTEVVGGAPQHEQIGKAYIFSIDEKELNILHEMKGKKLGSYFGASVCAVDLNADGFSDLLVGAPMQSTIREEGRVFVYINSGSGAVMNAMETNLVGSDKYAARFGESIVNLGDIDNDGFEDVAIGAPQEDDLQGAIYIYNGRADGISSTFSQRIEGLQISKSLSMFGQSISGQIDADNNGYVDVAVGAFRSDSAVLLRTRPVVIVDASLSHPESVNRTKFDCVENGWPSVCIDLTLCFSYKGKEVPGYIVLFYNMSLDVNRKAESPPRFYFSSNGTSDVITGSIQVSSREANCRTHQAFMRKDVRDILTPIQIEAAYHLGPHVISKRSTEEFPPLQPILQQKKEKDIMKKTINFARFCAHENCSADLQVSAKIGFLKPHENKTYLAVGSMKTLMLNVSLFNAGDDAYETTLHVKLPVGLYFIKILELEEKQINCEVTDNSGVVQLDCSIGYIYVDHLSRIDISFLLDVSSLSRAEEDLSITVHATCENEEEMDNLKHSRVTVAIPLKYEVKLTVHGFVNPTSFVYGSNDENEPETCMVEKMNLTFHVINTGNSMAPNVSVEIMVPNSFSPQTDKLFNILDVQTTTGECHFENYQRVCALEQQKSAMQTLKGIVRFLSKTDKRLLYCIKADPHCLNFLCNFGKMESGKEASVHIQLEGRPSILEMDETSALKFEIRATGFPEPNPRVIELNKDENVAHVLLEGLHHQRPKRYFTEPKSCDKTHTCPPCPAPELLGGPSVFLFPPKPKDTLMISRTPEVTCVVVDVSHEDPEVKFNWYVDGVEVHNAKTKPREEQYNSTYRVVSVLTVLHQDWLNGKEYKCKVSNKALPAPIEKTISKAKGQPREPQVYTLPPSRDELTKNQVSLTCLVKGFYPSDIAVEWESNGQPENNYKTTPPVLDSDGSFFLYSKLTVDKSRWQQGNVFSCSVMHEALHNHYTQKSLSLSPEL
Chain of VLA-4-IgG chimera protein (P05556 with tags, fused parts or gaps limits assumed): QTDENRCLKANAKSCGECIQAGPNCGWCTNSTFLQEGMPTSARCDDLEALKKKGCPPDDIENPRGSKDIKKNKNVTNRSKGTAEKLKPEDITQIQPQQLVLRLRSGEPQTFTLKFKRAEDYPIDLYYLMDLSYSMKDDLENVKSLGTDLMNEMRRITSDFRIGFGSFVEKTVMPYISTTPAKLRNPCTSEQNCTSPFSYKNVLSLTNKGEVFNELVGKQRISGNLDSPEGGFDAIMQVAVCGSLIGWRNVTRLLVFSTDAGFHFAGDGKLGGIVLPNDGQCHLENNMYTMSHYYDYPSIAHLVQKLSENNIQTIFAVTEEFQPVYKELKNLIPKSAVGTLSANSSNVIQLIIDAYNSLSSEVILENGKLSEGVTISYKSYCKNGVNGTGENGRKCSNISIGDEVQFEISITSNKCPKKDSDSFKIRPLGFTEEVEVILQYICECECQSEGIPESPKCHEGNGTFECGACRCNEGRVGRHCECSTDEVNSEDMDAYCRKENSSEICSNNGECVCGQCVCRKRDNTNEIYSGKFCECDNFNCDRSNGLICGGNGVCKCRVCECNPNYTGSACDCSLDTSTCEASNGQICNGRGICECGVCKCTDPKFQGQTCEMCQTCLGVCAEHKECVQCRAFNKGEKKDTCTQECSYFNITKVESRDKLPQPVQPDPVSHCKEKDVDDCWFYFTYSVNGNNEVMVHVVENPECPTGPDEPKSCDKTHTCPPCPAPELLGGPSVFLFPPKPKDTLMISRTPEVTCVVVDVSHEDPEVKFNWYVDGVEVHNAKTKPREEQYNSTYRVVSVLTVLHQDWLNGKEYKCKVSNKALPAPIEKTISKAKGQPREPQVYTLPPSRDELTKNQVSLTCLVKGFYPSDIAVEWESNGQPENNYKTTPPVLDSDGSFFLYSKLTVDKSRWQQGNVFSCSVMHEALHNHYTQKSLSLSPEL

| Structure (SMILES) | IC50 [nM] |
| --- | --- |
| O=C(Nc1ccn(C[C@H](NC(=O)N2CCC(n3c(=O)[nH]c4ccccc43)CC2)C(=O)O)c(=O)n1)c1c(Cl)cccc1Cl [Compound 32, 3-(4-((2,6-dichlorophenyl)carbonylamino)-2-oxohydropyrimidinyl)-2-((4-(2-oxo-3-azaindolinyl)piperidyl)carbonylamino)propanoic Acid] | 0.97 |
| C[C@@H]1CCC[C@H](C)N1C(=O)N[C@@H](Cn1ccc(NC(=O)c2c(Cl)cccc2Cl)nc1=O)C(=O)O [Compound 50, 3-(4-((2,6-dichlorophenyl)carbonylamino)-2-oxohydropyrimidinyl)-2-((2,6-dimethylpiperidyl)carbonylamino)propanoic Acid] | 4.5 |

Now from value to compound:

| IC50 [nM] | Structure (SMILES) |
| --- | --- |
| 3.8 | CS(=O)(=O)N1CC2(CCN(C(=O)N[C@@H](Cn3ccc(NC(=O)c4c(Cl)cccc4Cl)nc3=O)C(=O)O)CC2)c2ccccc21 [Compound 28, 3-(4-((2,6-dichlorophenyl)carbonylamino)-2-oxohydropyrimidinyl)-2-((1-(methylsulfonyl)spiro[indoline-3,4′-piperidin]-10-yl)carbonylamino)propanoic Acid] |
| 2.4 | O=C(Nc1ccn(C[C@H](NC(=O)N2CCC3(CC2)C(=O)NCN3c2ccccc2)C(=O)O)c(=O)n1)c1c(Cl)cccc1Cl [Compound 35] |
| 3.5 | CC(=O)NC1(c2ccccc2)CCN(C(=O)N[C@@H](Cn2ccc(NC(=O)c3c(Cl)cccc3Cl)nc2=O)C(=O)O)CC1 [Compound 37] |

System: not given
Experiment: not given
Settings: not given

| melting point [°C] | Structure (SMILES) |
| --- | --- |
| 193 to 195 | O=C(N[C@@H](Cn1ccc(NC(=O)c2c(Cl)cccc2Cl)nc1=O)C(=O)O)NC1(C(=O)Nc2ccccc2)CCCCC1 [Compound 8, 3-(4-((2,6-dichlorophenyl)carbonylamino)-2-oxohydropyrimidinyl)-2-((((N-phenylcarbamoyl)cyclohexyl)amino)carbonylamino)propanoic Acid] |
| 250 | O=C(Nc1ccc(C[C@@H](C(=O)O)N2C(=O)NC3(CCCCC3)C2=O)cc1)c1c(Cl)cccc1Cl [Compound 44] |
